Test results taken from patent US12565467B2, “Compounds, compositions, and methods for the treatment of inflammatory, degenerative, and neurodegenerative diseases” (Board of Supervisors of Louisiana State University and …, priority 2015, dated 2026).

Tests used:
SIRT1 = SIRT1 abundance in ARPE-19 cells under oxidative stress; assay type: cell-based; settings: ARPE-19 / human RPE cells confronted with OS
Text: FIG. 10. (A) Effect of NPD1 and VLC-PUFA C32:6 and C34:6 in mediating upregulation of SIRT1 in ARPE-19 cells. (B) Quantification of SIRT1 upregulation by NPD1, C32:6 and C34:6. SIRT1 (Sirtuin1) belongs to a family of highly conserved proteins linked to caloric restriction beneficial outcomes and aging by regulating energy metabolism, genomic stability and stress resistance. SIRT1 is a potential therapeutic target in several diseases including cancer, diabetes, inflammatory disorders, and neurodegenerative diseases or disorders. Elovanoids induce cell survival involving the upregulation of the Bcl2 class of survival proteins and the downregulation of pro-apoptotic Bad and Bax under oxidative stress (OS) in RPE cells. […] As a consequence, remarkable cell survival takes place. This target of elovanoids might be relevant to counteract consequences of several diseases associated with SIRT1.
FIG. 10—(A) Effect of NPD1 and VLC-PUFA C32:6 and C34:6 in mediating upregulation of SIRT1 in ARPE-19 cells. (B) Quantification of SIRT1 upregulation by NPD1, C32:6 and C34:6. SIRT1 (Sirtuin1) belongs to a family of highly conserved proteins linked to caloric restriction beneficial outcomes and aging by regulating energy metabolism, genomic stability and stress resistance. […]

[1] = system: human retinal pigment epithelial (RPE) cells deficient in 15-LOX-D1; test: Oxidative stress (OS) induced apoptosis / cell death in 15-LOX-1-deficient human RPE cells; assay type: cell-based
Text: (§1) FIG. 4. (A) Cytoprotective effects of NPD1 like compounds on OS induced apoptosis. The results shown in this figure compare the cytoprotective capacities of long chain polyunsaturated fatty acids (VLC-PUFA), elovanoids ELV1 and ELV2, and neuroprotectin D1 (NPD1) in human retinal pigment epithelial (RPE) cells deficient in 15-LOX-D1 by measuring the protection of cell deaths induced by oxidative stress (OS) by these compounds. […] (B) Elovanoid precursors protect human retinal pigment epithelial cells deficient in 15-LOX-1, unlike DHA, from oxidative stress conditions.
(§2) FIG. 5. (A) Effect of PD146176 on VLC-PUFA-inhibited apoptosis induced by OS in ARPE-19 cells. […] It is evident that 32:6 and 34:6 LCAF were able to induce a substantial amount (55 and 48% respectively) of neuroprotection compared to PD 146176 (22%) when the stressed cells were treated with 5 μm of 15-LOX-D1 inhibitor. It can be concluded that since PD146176 is the inhibitor of 15-lipooxygenase enzyme, it might be protecting the stressed RPE cells by accumulating neuroprotective agents inside the cells. (B) Comparison of cytoprotective capacities of NPD1, C32:6 and C34:6 VLC-PUFA on oxidative stress-induced apoptosis in 15-LOX-1 cells. Shown here is the comparison of neuroprotection in a 15-LOX-1-deficient cell line under oxidative stress with 32:6 and 34:6 VLC-PUFA along with NPD1. 32:6 and 34:6 LCAF were able to induce neuroprotection (45% and 40% respectively), as compared to oxidative stress (90%) under this condition. (C) Concentration dependent cytoprotection by C32:6 and C34:6 VLC-PUFA in oxidative-stress induced ARPE-19 cells. A concentration (50-500 nM) kinetic of cytoprotection induced by LCAF 32:6 and 34:6 in RPE cell culture under OS was shown here. […] We decided to use 250 nM concentrations of 32:6 and 34:6 LCAF in subsequent experiments. (D) Selected images of alive and dead cells from this study (control, OS, treatment with C32:6).
as §1, with “Evidence of cytoprotection by 32.6 and 34.6 VLC-PUFA in oxidative-stress induced ARPE-19 cells as detailed in (FIG. 4): (A) Cytoprotective” for “FIG. 4. (A) Cytoprotective”, “capacities of very long chain” for “capacities of long chain”
FIG. 5—(A) Effect of PD146176 on VLC-PUFA inhibited apoptosis induced by OS in ARPE-19 cells. […] It is evident that 32:6 and 34:6 LCAF were able to induce a substantial amount (55 and 48% respectively) of neuroprotection compared to PD 146176 (22%) when the stressed cells were treated with 5 μm of 15-LOX-D1 inhibitor. It can be concluded that since PD146176 is the inhibitor of 15-lipooxygenase enzyme, it might be protecting the stressed RPE cells by accumulating neuroprotective agents inside the cells. (B) Comparison of cytoprotective capacities of NPD1, C32:6 and C34:6 VLC-PUFA on oxidative stress-induced apoptosis in 15-LOX-1 cells. Shown here is the comparison of neuroprotection in a 15-LOX-1-deficient cell line under oxidative stress with 32:6 and 34:6 VLC-PUFA along with NPD1. 32:6 and 34:6 VLC-PUFA were able to induce neuroprotection (45% and 40% respectively), as compared to oxidative stress (90%) under this condition. (C) Concentration dependent cytoprotection by C32:6 and C34:6 VLC-PUFA in oxidative-stress induced ARPE-19 cells. A concentration (50-500 nM) kinetic of cytoprotection induced by VLC-PUFA 32:6 and 34:6 in RPE cell culture under OS was shown here. […] We decided to use 250 nM concentrations of 32:6 and 34:6 VLC-PUFA in subsequent experiments. […]

ARPE-19 cells = test: Oxidative stress induced apoptosis / cell death in ARPE-19 cells; assay type: cell-based, human; settings: for concentration dependent cytoprotection (FIG. 5C): ARPE-19 under OS
Experimental: as §2
FIG. 5—(A) Effect of PD146176 on VLC-PUFA inhibited apoptosis induced by OS in ARPE-19 cells. […] It is evident that 32:6 and 34:6 LCAF were able to induce a substantial amount (55 and 48% respectively) of neuroprotection compared to PD 146176 (22%) when the stressed cells were treated with 5 μm of 15-LOX-D1 inhibitor. It can be concluded that since PD146176 is the inhibitor of 15-lipooxygenase enzyme, it might be protecting the stressed RPE cells by accumulating neuroprotective agents inside the cells. (B) Comparison of cytoprotective capacities of NPD1, C32:6 and C34:6 VLC-PUFA on oxidative stress-induced apoptosis in 15-LOX-1 cells. Shown here is the comparison of neuroprotection in a 15-LOX-1-deficient cell line under oxidative stress with 32:6 and 34:6 VLC-PUFA along with NPD1. 32:6 and 34:6 VLC-PUFA were able to induce neuroprotection (45% and 40% respectively), as compared to oxidative stress (90%) under this condition. (C) Concentration dependent cytoprotection by C32:6 and C34:6 VLC-PUFA in oxidative-stress induced ARPE-19 cells. A concentration (50-500 nM) kinetic of cytoprotection induced by VLC-PUFA 32:6 and 34:6 in RPE cell culture under OS was shown here. […] We decided to use 250 nM concentrations of 32:6 and 34:6 VLC-PUFA in subsequent experiments. (D) Selected images of alive and dead cells from this study (control, OS, treatment with C32:6).

Bax = Bax expression in LOX-D RPE cells under oxidative stress; assay type: cell-based, human
Experimental: (§3) FIG. 8. (A) Bcl-xL-upregulation by elovanoids ELV1 and ELV2 in ARPE-19 cells under stress. Bcl-xL is the antiapoptotic Bcl2 family protein. Like proapoptotic proteins Bid and Bim, the effect of elovaniod precursors on the antiapoptotic protein Bcl-xL was tested in this figure in RPE cells under OS. […] (B) Effect of NPD1, ELV1 and ELV2 on Bax expression in LOX-D cells under stress. Proapoptotic Bax was tested in this figure. […] C) VLC-PUFA and elovanoids ELV1 and ELV2 mediated effect on Bax upregulation in ARPE-19 cells under stress. In this experiment, elovanoid precursors along with VLC-PUFA were tested on the downregulation of the Bax protein in RPE cells under stress.
as §3, with “8—(A)” for “8. (A)”

Bim = Bim protein in ARPE-19 cells under oxidative stress; assay type: cell-based, human; settings: ARPE-19 cells under stress
Text: (§4) FIG. 7. (A) VLC-PUFA and ELV1 and ELV2 compounds mediated downregulation of Bim in ARPE-19 cells under stress. Bim, another class of Bcl2 family, has been tested like Bid in this figure to confirm our previous results. VLC-PUFA and elovanoids protected against the upregulation of Bim by OS, similar to Bid, in RPE cells under stress. (B) VLC-PUFA and elovanoids mediated effect on Bim downregulation in ARPE-19 cells under stress.
as §4, with “7—A)” for “7. (A)”, “[…]” for “downregulation”, “protected” for “protected against”

Bid = Bid protein by western blot in ARPE-19 cells under oxidative stress; assay type: cell-based, human
Text: FIG. 6. (A) VLC-PUFA and elovanoids ELV1 and ELV2 mediated effect on Bid upregulation in ARPE-19 cells under stress. […] (B) VLC-PUFA and ELV1 and ELV2 compounds mediated upregulation of Bid in ARPE-19 cells under stress.
FIG. 6—(A) VLC-PUFA and elovanoids ELV1 and ELV2 mediated effect on Bid upregulation in ARPE-19 cells under stress. […] (B) VLC-PUFA and ELV1 and ELV2 compounds mediated upregulation of Bid in ARPE-19 cells under stress.

Bcl2 = Bcl2 protein in RPE (LOX-D / ARPE-19) cells under oxidative stress; assay type: cell-based, human
Text: FIG. 9. (A) VLC-PUFA and elovanoids ELV1 and ELV2 mediated effect on Bcl2 upregulation in ARPE-19 cells under stress. In this experiment we tested the effect of elovanoid precursors on Bcl2 upregulation along with VLC-PUFA in stressed RPE. (B) Quantification of Bcl2 upregulation by NPD1, ELV1 and ELV2 in LOX-D cells. Bcl2 is an important antiapoptotic protein of the Bcl2 family protein.
FIG. 9—(A) VLC-PUFA and elovanoids ELV1 and ELV2 mediated effect on Bcl2 upregulation in ARPE-19 cells under stress. In this experiment we tested the effect of elovaniod precursors on Blc2 upregulation along with VLC-PUFA in stressed RPE. (B) Quantification of Bcl2 upregulation by NPD1, ELV1 and ELV2 in LOX-D cells. Bcl2 is an important antiapoptotic protein of the Bcl2 family protein.

Bcl-xL = Bcl-xL protein in ARPE-19 cells under oxidative stress; assay type: cell-based, human; settings: ARPE-19 cells under OS
Experimental: as §3
as §3, with “8—(A)” for “8. (A)”

Compound	effect on SIRT1 abundance (FIG. 10) (SIRT1)	neuroprotection (FIG. 5B) ([1]; 15-LOX-1-deficient cell line under oxidative stress, compared to oxidative stress (90%)) [%]	protection against cell death under oxidative stress conditions (FIG. 4B) ([1]; 15-LOX-D1 cells under oxidative stress)	concentration dependent cytoprotection (FIG. 5C) (ARPE-19 cells; 250 nM)	concentration dependent cytoprotection (FIG. 5C) (ARPE-19 cells; 500 nM)	protection against OS in RPE cells (summary, FIGS. 4-10) (ARPE-19 cells; RPE cells)	concentration dependent cytoprotection (FIG. 5C) (ARPE-19 cells; starting from 50 nM)	neuroprotection (FIG. 5A) (ARPE-19 cells; stressed ARPE-19 cells treated with 5 μm of 15-LOX-D1 inhibitor PD146176) [%]	effect on Bax upregulation by OS (FIG. 8B) (Bax)	effect on Bim upregulation by OS (FIG. 7) (Bim)	effect on Bid protein upregulated by OS (FIG. 6) (Bid)	effect on Bcl2 protein (FIG. 9) (Bcl2)	activity against OS relative to the related VLC-PUFA (FIG. 4) ([1]; as sodium salts or methyl esters)	effect on antiapoptotic Bcl-xL protein (FIG. 8A) (Bcl-xL)
CC/C=C\C/C=C\C/C=C\C/C=C\C/C=C\C/C=C\CCCCCCCCCCCCC(=O)O [C32:6]	mediate the upregulation of SIRT1	45	protect against cell death	very good intermediate effect	maximum effect	protective against OS	gradual decrease of cell deaths	55	–	–	–	–	–	–
CC/C=C\C[C@H](O)\C=C/C=C/C=C/[C@H](O)C/C=C\C/C=C\CCCCCCCCCCCCC(=O)O [ELV1, (14Z,17Z,20R,21E,23E,25Z,27S,29Z)-20,27-dihydroxydotriaconta-14,17,21,23,25,29-hexaenoic acid]	–	–	–	–	–	–	–	–	potent downregulation	potent downregulation	potent downregulation	potent upregulation	more potent activity against OS than the related VLC-PUFA	potent upregulation
